In brackets after ≈: the same amount, converted by molar mass.
Tests used:
[1] = molecular target: T1, N. gonorrhoeae PBP2 (Neisseria gonorrhoeae, UniProt P08149); experiment: Bocillin-FL fluorescence polarization competition binding assay, N. gonorrhoeae PBP2; settings: fluorescence polarization competition binding assay using Bocillin-FL; read-out: N. gonorrhoeae PBP2 Potency
T1 construct: made in house
Outline: (§1)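 A. baumannii PBP2 (2.5 μM) and PBP3 (0.2 μM) were run in 25 mM Tris pH 8.0 buffer with Tween 20; E. coli PBP3 (1.5 μM) and N. gonorrhoeae PBP2 ([…]) in 50 mM Hepes pH 8.0 buffer.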

[2] = Bocillin-FL fluorescence polarization competition binding assay, A. baumannii PBP3; settings: fluorescence polarization competition binding assay using Bocillin-FL; column 3; read-out: 4. baumannii PBP1a Potency
Outline: as §1

[3] = molecular target: T2, P. aeruginosa PBP3 (Pseudomonas aeruginosa, UniProt G3XD46); experiment: Bocillin-FL fluorescence polarization competition binding assay, P. aeruginosa PBP3; settings: fluorescence polarization competition binding assay using Bocillin-FL
T2 construct: made in house
Outline: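 Inhibitor competition with Bocillin-FL for P. aeruginosa PBP3 was followed by fluorescence polarization on a Cytation3 (BioTek) reader, using g-factor 0.96, 490 nm excitation and 520 nm emission. The enzyme was at 0.75 μM and the probe at 0.1 μM in Hepes/NaCl/glycerol buffer, 80 μl per well. FP was recorded immediately after probe addition for up to 60 minutes. Potency was expressed as EC50, the concentration that reduces bound probe by 50%.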

[4] = tested on: A. baumannii CDC-0045 producing TEM-1D, OXA-23, and OXA-69; experiment: Broth microdilution MIC in iron-depleted CAMHB (IDM); format: cell-based; settings: Acinetobacter baumannii, read-out: Minimum Inhibitory Concentration, CDC-0045
[5] = tested on: A. baumannii ATCC 19606; experiment: as above; format: cell-based; settings: Acinetobacter baumannii, ATCC19606, read-out: Minimum Inhibitory Concentration, ATCC 19606
Outline: (§2)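 Colonies grow 3-5 h in iron-depleted broth at 37° C, are adjusted by OD600 to give 2-8×10^5 CFU/mL, and are added to 2-fold serial compound dilutions. After 16-20 h (Pseudomonas) or 20-24 h (Acinetobacter) at 37° C, the lowest concentration with no visible growth is the MIC.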

[6] = tested on: A. baumannii CDC-0083 producing NDM-1, PER-7, OXA-23, and OXA-69; experiment: as above; format: cell-based; settings: Acinetobacter baumannii, read-out: Minimum Inhibitory Concentration, CDC-0083
Outline: as §2

T2 sequence (G3XD46 whole entry): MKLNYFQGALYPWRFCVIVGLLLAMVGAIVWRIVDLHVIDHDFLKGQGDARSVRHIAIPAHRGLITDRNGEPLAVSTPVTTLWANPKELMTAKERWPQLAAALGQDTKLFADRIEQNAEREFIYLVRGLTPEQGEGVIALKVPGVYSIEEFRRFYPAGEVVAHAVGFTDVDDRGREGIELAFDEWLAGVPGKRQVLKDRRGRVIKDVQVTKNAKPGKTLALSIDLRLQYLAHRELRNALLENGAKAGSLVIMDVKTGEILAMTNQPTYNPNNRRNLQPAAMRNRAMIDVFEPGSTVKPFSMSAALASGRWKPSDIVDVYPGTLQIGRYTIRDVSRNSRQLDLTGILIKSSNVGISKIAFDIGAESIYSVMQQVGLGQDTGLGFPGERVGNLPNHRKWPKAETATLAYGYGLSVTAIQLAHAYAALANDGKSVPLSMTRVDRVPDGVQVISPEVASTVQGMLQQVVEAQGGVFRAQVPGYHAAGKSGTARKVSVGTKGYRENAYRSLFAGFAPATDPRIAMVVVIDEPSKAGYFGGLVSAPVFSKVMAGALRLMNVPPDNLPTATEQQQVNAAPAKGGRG
T1 sequence (P08149 whole entry): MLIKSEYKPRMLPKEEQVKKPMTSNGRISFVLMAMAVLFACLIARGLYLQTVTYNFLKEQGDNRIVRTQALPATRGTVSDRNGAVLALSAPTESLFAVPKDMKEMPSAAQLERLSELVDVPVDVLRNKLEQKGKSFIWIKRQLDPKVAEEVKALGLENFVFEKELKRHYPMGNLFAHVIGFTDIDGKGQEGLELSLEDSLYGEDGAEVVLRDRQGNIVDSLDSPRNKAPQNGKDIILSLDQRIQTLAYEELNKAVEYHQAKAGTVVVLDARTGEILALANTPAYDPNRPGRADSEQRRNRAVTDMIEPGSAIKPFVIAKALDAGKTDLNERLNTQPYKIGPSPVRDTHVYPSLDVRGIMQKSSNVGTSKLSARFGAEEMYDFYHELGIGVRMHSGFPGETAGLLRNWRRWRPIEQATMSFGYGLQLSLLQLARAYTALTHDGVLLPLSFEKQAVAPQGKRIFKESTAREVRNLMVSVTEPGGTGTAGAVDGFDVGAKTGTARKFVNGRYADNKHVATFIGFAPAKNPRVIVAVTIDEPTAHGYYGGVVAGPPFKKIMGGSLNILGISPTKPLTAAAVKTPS

SMILES | EC50 [1] | EC50 [2] | P. aeruginosa PBP3 Potency [3] | MIC [4] | MIC [5] | MIC [6]
CCN1CCN(C(=O)N[C@@H](C(=O)N[C@H]2Cc3cccc(C(=O)O)c3OB2O)c2c(O)cc(O)cc2F)C(=O)C1=O (single isomer, unassigned) [Example 182] | > 100 µM | > 100 µM | – | – | – | –
CS(=O)(=O)N1CCN(C(=O)N[C@@H](C(=O)N[C@H]2Cc3ccc(F)c(C(=O)O)c3OB2O)c2cc(F)c(O)c(O)c2Cl)C1=O (single isomer, unassigned) [Example 189] | 10 to 30 µM | 10 to 30 µM | D (D represents a potency <10 μM) | 2 to 4 µg/mL (≈ 3.16 to 6.32 µM) | 0.5 to 1 µg/mL (≈ 0.79 to 1.58 µM) | 32 to 64 µg/mL (≈ 50.6 to 101 µM)
CCN1CCN(C(=O)N[C@@H](C(=O)N[C@H]2Cc3ccc(F)c(C(=O)O)c3OB2O)c2c(Cl)cc(O)c(O)c2F)C(=O)C1=O (single isomer, unassigned) [Example 207] | – | 10 to 30 µM | D (D represents a potency <10 μM) | > 128 µg/mL | 0.5 to 1 µg/mL (≈ 0.819 to 1.64 µM) | > 128 µg/mL
O=C(NCCCN1CCN(C(=O)NC(C(=O)N[C@H]2Cc3cccc(C(=O)O)c3OB2O)c2ncc(O)cc2F)C(=O)C1=O)c1ccc(O)c(O)c1Cl (stereo partly drawn) [Example 1, (3R)-3-(2-(4-(3-(2-chloro-3,4-dihydroxybenzamido)propyl)-2,3-dioxopiperazine-1-carboxamido)-2-(3-fluoro-5-hydroxypyridin-2-yl)acetamido)-2-hydroxy-3,4-dihydro-2H-benzo[e][1,2]oxaborinine-8-carboxylic acid] | – | – | D (D represents a potency <10 μM) | – | 2 to 4 µg/mL (≈ 2.69 to 5.38 µM) | –
C[C@H]1CN(CCNC(=O)c2ccc(O)c(O)c2Cl)C(=O)C(=O)N1C(=O)NC(C(=O)N[C@H]1Cc2cccc(C(=O)O)c2OB1O)c1ncc(O)cc1F (stereo partly drawn) [Example 2, (3R)-3-(2-((S)-4-(2-(2-chloro-3,4-dihydroxybenzamido)ethyl)-6-methyl-2,3-dioxopiperazine-1-carboxamido)-2-(3-fluoro-5-hydroxypyridin-2-yl)acetamido)-2-hydroxy-3,4-dihydro-2H-benzo[e][1,2]oxaborinine-8-carboxylic acid] | – | < 10 µM | D (D represents a potency <10 μM) | 2 to 4 µg/mL (≈ 2.69 to 5.38 µM) | 0.5 to 1 µg/mL (≈ 0.673 to 1.35 µM) | 8 to 16 µg/mL (≈ 10.8 to 21.5 µM)
O=C(NCCCN1CCN(C(=O)NC(C(=O)N[C@H]2Cc3ccc(F)c(C(=O)O)c3OB2O)c2ncc(O)cc2F)C(=O)C1=O)c1ccc(O)c(O)c1Cl (stereo partly drawn) [Example 3, (3R)-3-(2-(4-(3-(2-chloro-3,4-dihydroxybenzamido)propyl)-2,3-dioxopiperazine-1-carboxamido)-2-(3-fluoro-5-hydroxypyridin-2-yl)acetamido)-7-fluoro-2-hydroxy-3,4-dihydro-2H-benzo[e][1,2]oxaborinine-8-carboxylic acid] | – | < 10 µM | D (D represents a potency <10 μM) | 32 to 64 µg/mL (≈ 42.1 to 84.1 µM) | 32 to 64 µg/mL (≈ 42.1 to 84.1 µM) | 32 to 64 µg/mL (≈ 42.1 to 84.1 µM)
Nc1nc(C(NC(=O)N2CCN(CCNC(=O)c3ccc(O)c(O)c3Cl)C(=O)C2=O)C(=O)N[C@H]2Cc3ccc(F)c(C(=O)O)c3OB2O)c(F)s1 (stereo partly drawn) [Example 4, (3R)-3-(2-(2-amino-5-fluorothiazol-4-yl)-2-(4-(2-(2-chloro-3,4-dihydroxybenzamido)ethyl)-2,3-dioxopiperazine-1-carboxamido)acetamido)-7-fluoro-2-hydroxy-3,4-dihydro-2H-benzo[e][1,2]oxaborinine-8-carboxylic acid] | – | – | D (D represents a potency <10 μM) | 2 to 4 µg/mL (≈ 2.66 to 5.32 µM) | 0.5 to 1 µg/mL (≈ 0.665 to 1.33 µM) | 32 to 64 µg/mL (≈ 42.6 to 85.1 µM)
O=C(NCCN1CCN(C(=O)NC(C(=O)N[C@H]2Cc3ccc(F)c(C(=O)O)c3OB2O)c2ncc(O)cc2F)C(=O)C1=O)c1c(F)cc(O)c(O)c1Cl (stereo partly drawn) [Example 5, (3R)-3-(2-(4-(2-(2-chloro-6-fluoro-3,4-dihydroxybenzamido)ethyl)-2,3-dioxopiperazine-1-carboxamido)-2-(3-fluoro-5-hydroxypyridin-2-yl)acetamido)-7-fluoro-2-hydroxy-3,4-dihydro-2H-benzo[e][1,2]oxaborinine-8-carboxylic acid] | – | < 10 µM | D (D represents a potency <10 μM) | 2 to 4 µg/mL (≈ 2.61 to 5.23 µM) | 0.5 to 1 µg/mL (≈ 0.654 to 1.31 µM) | 32 to 64 µg/mL (≈ 41.8 to 83.7 µM)
Nc1nc(/C(=N/OC[C@H](NC(=O)c2ccc(O)c(O)c2Cl)C(=O)O)C(=O)N[C@H]2Cc3cccc(C(=O)O)c3OB2O)cs1 [Example 6, (R)-3-((Z)-2-(2-aminothiazol-4-yl)-2-(((S)-2-carboxy-2-(2-chloro-3,4-dihydroxybenzamido)ethoxy)imino)acetamido)-2-hydroxy-3,4-dihydro-2H-benzo[e][1,2]oxaborinine-8-carboxylic acid] | – | > 100 µM | D (D represents a potency <10 μM) | 32 to 64 µg/mL (≈ 50.5 to 101 µM) | 32 to 64 µg/mL (≈ 50.5 to 101 µM) | 32 to 64 µg/mL (≈ 50.5 to 101 µM)
CCN1CCN(C(=O)NC(C(=O)N[C@H]2Cc3cccc(C(=O)O)c3OB2O)c2c(F)cc(NC(C)=O)cc2F)C(=O)C1=O (stereo partly drawn) [Example 188, (3R)-3-(2-(4-acetamido-2,6-difluorophenyl)-2-(4-ethyl-2,3-dioxopiperazine-1-carboxamido)acetamido)-2-hydroxy-3,4-dihydro-2H-benzo[e][1,2]oxaborinine-8-carboxylic acid] | < 10 µM | < 10 µM | D (D represents a potency <10 μM) | – | – | –
NCCCN1CCN(C(=O)N[C@@H](C(=O)N[C@H]2Cc3cc(Cl)c(F)c(C(=O)O)c3OB2O)c2c(F)cc(O)c(O)c2Cl)C(=O)C1=O [Example 190, (R)-3-((R)-2-(4-(3-aminopropyl)-2,3-dioxopiperazine-1-carboxamido)-2-(2-chloro-6-fluoro-3,4-dihydroxyphenyl)acetamido)-6-chloro-7-fluoro-2-hydroxy-3,4-dihydro-2H-benzo[e][1,2]oxaborinine-8-carboxylic acid] | > 100 µM | > 100 µM | D (D represents a potency <10 μM) | > 128 µg/mL | > 128 µg/mL | > 128 µg/mL
CS(=O)(=O)N1CCN(C(=O)NC(C(=O)N[C@H]2Cc3ccc(F)c(C(=O)O)c3OB2O)c2c(Cl)cc(O)c(O)c2F)C1=O (stereo partly drawn) [Example 208, (3R)-3-(2-(6-chloro-2-fluoro-3,4-dihydroxyphenyl)-2-(3-(methylsulfonyl)-2-oxoimidazolidine-1-carboxamido)acetamido)-7-fluoro-2-hydroxy-3,4-dihydro-2H-benzo[e][1,2]oxaborinine-8-carboxylic acid] | – | 30 to 100 µM | D (D represents a potency <10 μM) | > 128 µg/mL | 2 to 4 µg/mL (≈ 3.16 to 6.32 µM) | > 128 µg/mL
CCN1CCN(C(=O)N[C@H](C(=O)N[C@H]2Cc3ccc(F)c(C(=O)O)c3OB2O)c2ccc(O)c(O)c2)C(=O)C1=O [Example 210, (R)-3-((S)-2-(3,4-dihydroxyphenyl)-2-(4-ethyl-2,3-dioxopiperazine-1-carboxamido)acetamido)-7-fluoro-2-hydroxy-3,4-dihydro-2H-benzo[e][1,2]oxaborinine-8-carboxylic acid] | – | > 100 µM | – | > 128 µg/mL | > 128 µg/mL | > 128 µg/mL
CCN1CCN(C(=O)N[C@@H](C(=O)N[C@H]2Cc3ccc(F)c(C(=O)O)c3OB2O)c2ccc(O)c(O)c2)C(=O)C1=O [Example 211, (R)-3-((R)-2-(3,4-dihydroxyphenyl)-2-(4-ethyl-2,3-dioxopiperazine-1-carboxamido)acetamido)-7-fluoro-2-hydroxy-3,4-dihydro-2H-benzo[e][1,2]oxaborinine-8-carboxylic acid] | – | 30 to 100 µM | D (D represents a potency <10 μM) | > 128 µg/mL | 2 to 4 µg/mL (≈ 3.58 to 7.16 µM) | > 128 µg/mL
NCCN1CCN(C(=O)N[C@@H](C(=O)N[C@H]2Cc3ccc(F)c(C(=O)O)c3OB2O)c2c(F)c(F)c(O)c(O)c2Cl)C(=O)C1=O [Example 226, (R)-3-((R)-2-(4-(2-aminoethyl)-2,3-dioxopiperazine-1-carboxamido)-2-(2-chloro-5,6-difluoro-3,4-dihydroxyphenyl)acetamido)-7-fluoro-2-hydroxy-3,4-dihydro-2H-benzo[e][1,2]oxaborinine-8-carboxylic acid] | – | > 100 µM | B (B represents a potency between 30 μM and 500 μM inclusive) | 8 to 16 µg/mL (≈ 12.4 to 24.9 µM) | 0.5 to 1 µg/mL (≈ 0.777 to 1.55 µM) | 2 to 4 µg/mL (≈ 3.11 to 6.21 µM)
